Reference: patent publication US20260035360A1, “INHIBITORS OF MYC AND USES THEREOF” (Northwestern University, priority 2022, published 2026)

What was measured:
PC3 cells = test: PC3 cell viability, CellTitreGlo Assay, 72 hrs; format: cell-based; conditions: Homo sapiens, PC-3
Experimental: (§1) Table 2. Biological data of selected compounds. For IC50 determination. PC3 and PC12 cells were treated with increasing concentrations of the indicated compounds for 72 hrs and cell viability assessed using CellTitreGlo Assay (Promega). For MYC and ATF4 protein level determination. PC3 cells were treated with the indicated compounds for 24 hr sand cell lysates processed for western blot with MYC and ATF4 antibodies using Actin as a control. Quantification analyses were performed by Biorad ChemiDoc Imager and Bio-Rad Image Lab software.

PC12 cells = test: PC12 cell viability, CellTitreGlo Assay, 72 hrs; format: cell-based; conditions: Rattus norvegicus, PC-12
Experimental: as §1

MycCaP;Pten-KO cells = test: Tumor growth inhibition, MycCaP;Pten-KO subcutaneous allograft in male FVB/N mice; format: in vivo; conditions: after 14 d; for Efficacy MycCaP;Pten-ko (TGI @ 100 mg/kg/d po): male FVB/N mice, Table 3; for TGI: QD, Table 7
Experimental: (§2) Table 3. Biological data of selected compounds. […] Tumor growth inhibition (TGI) was determined after 14 d.
Table 7. Tumor Growth Inhibition data. […] Tumor growth inhibition (TOD was determined after 14 d.

[1] = Toxicity (weight loss) in tumor-bearing mice; format: in vivo; conditions: weight loss class
Experimental: as §2

MYC = target: T1, MYC (Homo sapiens, UniProt P01106); test: MYC protein level in PC3 cells by western blot, 24 hr; format: cell-based; conditions: PC-3, 24 h, PC3, 24 h, Actin control, read-out: Relative MYC protein at 10 μM (%, PC3 24 h)
T1 construct: endogenous in cells; host or cells: PC3 cells
Summary of the method: (§3)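 For viability IC50, PC3 and PC12 cells were exposed to a compound concentration range for 72 hrs and read by CellTitreGlo. MYC and ATF4 were measured in PC3 cells after 24 hr treatment by western blot, normalised to Actin and quantified by imager.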

ATF4 = ATF4 protein level in PC3 cells by western blot, 24 hr; format: cell-based; conditions: Homo sapiens, PC-3, PC3, 24 h, Actin control, read-out: Relative ATF4 protein at 10 μM (fold change, PC3 24 h)
Summary of the method: as §3

[2] = female, mouse, in vivo, po, 1 mg/kg
Experimental: (§4) PK: Plasma levels of compounds were determined after 1 mg/kg dosing PO in female BALB/C mice.
(§5) Plasma levels of compounds were determined after 1 mg/kg dosing PO in female BALB/C mice.

[3] = Plasma pharmacokinetics after 1 mg/kg PO in female mice; conditions: mouse
Experimental: as §4, §5

T1 sequence (P01106 whole entry): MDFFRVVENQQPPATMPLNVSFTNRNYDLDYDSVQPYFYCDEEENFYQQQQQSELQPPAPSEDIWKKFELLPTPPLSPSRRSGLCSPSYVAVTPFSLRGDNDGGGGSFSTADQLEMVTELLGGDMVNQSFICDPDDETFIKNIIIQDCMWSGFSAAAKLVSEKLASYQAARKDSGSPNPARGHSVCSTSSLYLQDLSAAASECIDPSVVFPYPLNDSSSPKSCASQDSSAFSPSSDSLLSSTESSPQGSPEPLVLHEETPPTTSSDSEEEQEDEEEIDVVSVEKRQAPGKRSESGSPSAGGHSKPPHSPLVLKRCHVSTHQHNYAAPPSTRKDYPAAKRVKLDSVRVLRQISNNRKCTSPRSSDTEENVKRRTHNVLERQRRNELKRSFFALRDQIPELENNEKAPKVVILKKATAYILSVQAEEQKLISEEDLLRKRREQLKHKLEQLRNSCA

Row | SMILES | IC50 (PC3 cells) | IC50 (PC12 cells) | Efficacy MycCaP;Pten-ko (TGI @ 100 mg/kg/d po) (MycCaP;Pten-KO cells) | Toxicity @ 100 mg/kg/d [1] | remaining activity at 10 µM (MYC) | fold induction at 10 µM (ATF4) | TGI (MycCaP;Pten-KO cells; 10 mg/kg p.o.) | TGI (MycCaP;Pten-KO cells; 30 mg/kg p.o.) | TGI (MycCaP;Pten-KO cells; 100 mg/kg p.o.) | AUMC0-t [2] | AUC(0-t) [3] | Cmax [3] | Tmax [3]
1 | Cn1nc(C(F)(F)F)cc1-c1ccc(OCc2ccc(Cl)cc2)c(-c2ccc(Cl)c(C(F)(F)F)c2)c1O [MYCi975, reference compound] | 2900 ± 500 nM | > 16000 nM | 50 | − (−, 0-5% weight loss) | – | – | – | – | – | – | – | – | –
2 | Cn1nc(C(F)(F)F)cc1-c1cc(Cl)c(COc2ccc(Cl)cc2)c(-c2ccc(Cl)c(C(F)(F)F)c2)c1O [NUCC-0226605] | 1000 nM | 10500 nM | 90 | ++ (++, 15-20% weight loss) | 34.7 ± 3.2% | 10.3 ± 1.5 | 56.29% | 65.67% | 92.51% | 49995 h*h*ng/mL | 4830 ng·h/mL | 274 ng/mL | 8 h
3 | Cn1nc(C(F)(F)F)cc1-c1cc(Cl)c(Oc2ccc(Cl)cc2)c(-c2ccc(Cl)c(C(F)(F)F)c2)c1O [NUCC-0227245] | 490 nM | 3810 nM | – | +++ (+++, >20% weight loss or death) | 37.1 ± 1% | 20.3 ± 3.7 | – | – | – | – | – | – | –
